Reference: US20260176232A1, “PROBENECID COMPOUNDS FOR THE TREATMENT OF INFLAMMASOME-MEDIATED DERMATOLOGICAL CONDITIONS” (Bacainn Biotherapeutics, Ltd., priority 2022, published 2026)

Assays:
[1] = system: NLRP1 inflammasome; assay: IL-1β secretion in macrophages challenged with L18-MDP (FIG. 4C); assay type: cell-based, human; conditions: BT032 20, 100 μM; MCC950 5 μM; L18-MDP 100 μg/ml 16 h
Text: (§1) In vitro stimulation of human macrophages.

[2] = molecular target: T1, NLRP3 inflammasome (Mus musculus, UniProt Q8R4B8); assay: IL-1β secretion (ELISA) in LPS-primed iBMDMs stimulated with silica or nigericin; assay type: cell-based, murine (C57BL/6); design: endogenous in cells; host or cells: immortalized wild-type C57BL/6 bone-marrow derived macrophages (iBMDMs), LPS-primed; conditions: compared with probenecid in DMSO or PBS
Procedure: In vitro stimulation of murine macrophages. Immortalized wild-type C57BL/6 bone-marrow derived macrophages (iBMDMs) were grown in DMEM supplemented with 10% heat inactivated FBS and 2 mM glutamine. iBMDMs were seeded in 96-well plates 24 hours prior incubation with lipopolysaccharide (LPS; 100 ng/mL) for 3 hours. Cells were then incubated with a control probenecid compound (probenecid dissolved in DMSO (Prob/D), probenecid dissolved in PBS (Prob/P)) or one of the probenecid analogs of the present technology (BT032, BT132, BT133, BT134, BT135, BT136, BT137, BT138, BT139, or BT140) at concentrations of 300 μM, 150 μM, 30 μM, or 3 μM 1 hour prior to stimulation with NLRP3 inflammasome activators, silica ([…]) or nigericin (6 μM). After an additional 6 hours, cell supernatants were collected and levels of IL-1β were quantified by ELISA. These experiments were run in triplicate three times.

[3] = system: NLRP1 inflammasome; assay: L18-MDP-induced IL-1β secretion in WT or NLRP3-/- immortalized BMDMs (FIG. 8); assay type: cell-based, murine; conditions: 20, 50, 100, 350 μM
Text: In vitro stimulation of murine macrophages.

[4] = system: Recombinant NLRP3; assay: Photo-affinity labelling of recombinant NLRP3, anti-PEG immunoblot (FIG. 9C); assay type: binding; conditions: inferred from photo-affinity probes ADS165, ADS167
[5] = molecular target: NLRC4 inflammasome (Mus musculus, UniProt Q3UP24); assay: IL-1β secretion in macrophages challenged with Flagellin (FIG. 4C); assay type: cell-based, human; conditions: BT032 20, 100 μM; 6 h
Text: as §1

[6] = system: NLRP1-mediated inflammasome activity; assay: IC50 curve, L18-MDP-induced IL-1β secretion in LPS-primed immortalized BMDMs; assay type: cell-based, murine; conditions: L18-MDP 100 μg/mL; drug 3.9-350 μM; FIG. 4B; read-out: half maximal inhibitory concentration (IC50), NLRP1-mediated inflammasome activity
Procedure: FIGS. 4A and 4B are charts showing inflammasome activity as determined by measuring secreted IL-1β concentrations in murine immortalized BMDMs pre-activated with lipopolysaccharide (LPS; 100 ng/mL) for 3 h. The macrophages were stimulated with either the NLRP3 activator, nigericin (3 μM) (FIG. 4A) or the NLRP1 agonist L18-MDP (100 μg/mL) (FIG. 4B) and treated or not with BT032 (3.9-350 μM). […] BT032 versus normalized responses (variable slope).

[7] = system: inflammasome activation by UVB; assay: Dermal UVB inflammatory challenge in healthy volunteers after intradermal dosing; assay type: in vivo, human
Procedure: This is a single-center, inflammatory challenge study in healthy volunteers, to evaluate inflammasome activation by UVB in healthy volunteers. Healthy volunteers will undergo a topical UVB challenge after intradermal dosing with BT032.
UV-B Challenge+BT032 (n=9; 3 Placebo, 6 Active): • Screening: 1 hour admission • Study day (day −1 to 1): 24 hours admission (baseline assessments, challenge, and 2, 4 hr blister, skin assessments) • Follow-up visit 1 (day 2): 1 hour admission (24 hr blister) • End of study visit (+7 days): 1 hour admission
Investigational drug (BT032)+UVB challenge. As part of the screening assessments, the subject's Fitzpatrick skin photo type is determined (type I-VI). The subject is first exposed to 6 different doses of UV-B, to determine the Minimal Erythemic Dose (MED) expressed in J/cm^2, using the six different slots of the UV-B lamp. Twenty-four hours (±2 hours) after the exposure of the 6 doses, the erythemic response of the skin to UV-B is assessed by two observers. The MED is determined visually, by observing which dose produces the first clearly discernible erythema. On the treatment days, the subject's skin is exposed to two minimal erythema doses (2MED) of UVB.
Subjects Groups. A total of 9 healthy volunteers will be enrolled. These subjects will undergo an UVB challenge after dosing with BT032. […]

[8] = system: T2, ASC speck formation (inflammasome complex); assay: Nigericin-induced ASC speck formation in ASC-cerulean/NLRP3 macrophages; assay type: cell-based; conditions: 350 μM, 60 mins before nigericin 3 μM 90 mins; about 20% of cells with nigericin alone
T2 construct: Flag; expressed in transfected cells; host or cells: NLRP3-deficient immortalized BMDMs
Procedure: FIGS. 5B-5D are pictures showing the ability of probenecid analogs of the present technology (e.g., BT032) to inhibit the formation of the inflammasome complex following NLRP3 activation. NLRP3-deficient immortalized BMDMs reconstituted with ASC-cerulean (pseudocolor RED) and NLRP3-Flag were either not stimulated (FIG. 5B) or stimulated with NLRP3 agonist nigericin (3 μM) for 90 mins (FIG. 5C). ASC-cerulean macrophages were also pretreated with BT032 (350 μM) for 60 mins prior to nigericin challenge (FIG. 5D). Macrophages were fixed with 4% paraformaldehyde and imaged for the formation of inflammasome specks as identified by intense, punctate staining in the cytosol of cells. Cell nuclei were stained with DAP (4′,6′-diamindino-2-phenylindole; BLUE). Representative images shown are maximum intensity projections of 3D deconvoluted z stacks using ImageJ.
FIG. 5E is a chart showing the number of ASC specks detected per field (6-7 fields per sample) compared to the total number of cells/field as determined by staining nuclei. Data is represented as a percentage of ASC-specks per field of view for each treatment group as outlined in FIGS. 5B-5D.
Methods. […] ASC-cerulean specks were counted for each field and as percentage of specks per field and represented as a percentage of total Hoechst positive cells.

[9] = molecular target: T1, NLRP3 inflammasome; assay: IL-1β secretion in macrophages challenged with nigericin, MSU or silica (FIG. 4C); conditions: BT032 20, 100 μM; MCC950 5 μM; secreted IL-1β

T1 sequence (Q8R4B8 whole entry): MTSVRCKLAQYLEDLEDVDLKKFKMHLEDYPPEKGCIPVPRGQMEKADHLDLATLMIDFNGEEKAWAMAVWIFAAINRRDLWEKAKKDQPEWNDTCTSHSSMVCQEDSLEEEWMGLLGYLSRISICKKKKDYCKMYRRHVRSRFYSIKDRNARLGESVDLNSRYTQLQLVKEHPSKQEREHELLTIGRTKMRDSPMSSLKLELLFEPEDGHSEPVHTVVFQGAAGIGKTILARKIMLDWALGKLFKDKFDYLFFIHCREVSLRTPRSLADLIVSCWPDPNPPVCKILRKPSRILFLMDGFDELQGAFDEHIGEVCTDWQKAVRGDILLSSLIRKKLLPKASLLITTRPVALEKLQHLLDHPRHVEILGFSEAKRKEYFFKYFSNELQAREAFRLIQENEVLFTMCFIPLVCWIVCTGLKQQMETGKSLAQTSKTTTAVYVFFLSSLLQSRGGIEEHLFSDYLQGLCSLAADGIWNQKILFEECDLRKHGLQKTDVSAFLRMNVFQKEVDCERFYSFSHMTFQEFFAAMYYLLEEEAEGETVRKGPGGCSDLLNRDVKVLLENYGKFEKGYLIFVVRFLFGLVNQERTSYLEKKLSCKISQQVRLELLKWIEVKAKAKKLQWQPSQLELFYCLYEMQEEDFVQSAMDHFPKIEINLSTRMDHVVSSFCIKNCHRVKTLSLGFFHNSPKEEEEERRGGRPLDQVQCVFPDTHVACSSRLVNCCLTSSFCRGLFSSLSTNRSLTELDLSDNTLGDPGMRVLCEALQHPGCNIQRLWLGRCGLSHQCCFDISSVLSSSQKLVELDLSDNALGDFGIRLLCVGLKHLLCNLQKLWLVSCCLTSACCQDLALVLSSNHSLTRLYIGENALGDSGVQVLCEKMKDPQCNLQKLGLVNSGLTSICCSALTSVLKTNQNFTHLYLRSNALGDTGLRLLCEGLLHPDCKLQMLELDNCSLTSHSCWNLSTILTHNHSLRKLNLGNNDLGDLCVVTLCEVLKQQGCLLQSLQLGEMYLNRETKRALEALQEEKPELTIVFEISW
NLRC4 inflammasome, sequence (Q3UP24 whole entry): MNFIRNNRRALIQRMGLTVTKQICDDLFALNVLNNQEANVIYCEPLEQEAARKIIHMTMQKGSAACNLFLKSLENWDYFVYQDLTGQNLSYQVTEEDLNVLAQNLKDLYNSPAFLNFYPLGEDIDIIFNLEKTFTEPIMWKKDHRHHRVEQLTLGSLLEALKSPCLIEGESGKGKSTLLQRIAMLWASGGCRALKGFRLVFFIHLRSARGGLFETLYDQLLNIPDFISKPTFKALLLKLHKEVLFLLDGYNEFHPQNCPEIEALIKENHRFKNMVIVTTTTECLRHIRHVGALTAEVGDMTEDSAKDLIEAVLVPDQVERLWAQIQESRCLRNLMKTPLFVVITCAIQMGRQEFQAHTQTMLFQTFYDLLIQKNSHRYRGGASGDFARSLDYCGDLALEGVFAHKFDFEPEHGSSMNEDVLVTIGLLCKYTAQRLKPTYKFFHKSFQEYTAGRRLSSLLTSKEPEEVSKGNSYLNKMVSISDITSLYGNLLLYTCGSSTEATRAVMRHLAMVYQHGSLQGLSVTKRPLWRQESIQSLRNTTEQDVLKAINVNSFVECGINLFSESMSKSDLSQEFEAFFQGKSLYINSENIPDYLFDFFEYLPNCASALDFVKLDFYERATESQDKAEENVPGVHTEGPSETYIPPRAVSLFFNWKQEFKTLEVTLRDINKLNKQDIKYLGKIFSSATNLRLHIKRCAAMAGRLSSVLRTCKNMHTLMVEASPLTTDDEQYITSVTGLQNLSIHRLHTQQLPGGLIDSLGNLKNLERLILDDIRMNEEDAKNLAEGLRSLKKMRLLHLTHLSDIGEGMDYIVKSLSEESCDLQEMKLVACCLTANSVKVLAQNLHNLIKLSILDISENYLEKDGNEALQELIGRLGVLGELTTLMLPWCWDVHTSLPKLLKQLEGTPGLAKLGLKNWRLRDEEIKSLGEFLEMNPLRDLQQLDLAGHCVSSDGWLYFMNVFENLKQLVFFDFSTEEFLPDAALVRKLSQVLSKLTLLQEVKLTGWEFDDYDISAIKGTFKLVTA
T2 sequence (Q96P20 whole entry, one chain of several): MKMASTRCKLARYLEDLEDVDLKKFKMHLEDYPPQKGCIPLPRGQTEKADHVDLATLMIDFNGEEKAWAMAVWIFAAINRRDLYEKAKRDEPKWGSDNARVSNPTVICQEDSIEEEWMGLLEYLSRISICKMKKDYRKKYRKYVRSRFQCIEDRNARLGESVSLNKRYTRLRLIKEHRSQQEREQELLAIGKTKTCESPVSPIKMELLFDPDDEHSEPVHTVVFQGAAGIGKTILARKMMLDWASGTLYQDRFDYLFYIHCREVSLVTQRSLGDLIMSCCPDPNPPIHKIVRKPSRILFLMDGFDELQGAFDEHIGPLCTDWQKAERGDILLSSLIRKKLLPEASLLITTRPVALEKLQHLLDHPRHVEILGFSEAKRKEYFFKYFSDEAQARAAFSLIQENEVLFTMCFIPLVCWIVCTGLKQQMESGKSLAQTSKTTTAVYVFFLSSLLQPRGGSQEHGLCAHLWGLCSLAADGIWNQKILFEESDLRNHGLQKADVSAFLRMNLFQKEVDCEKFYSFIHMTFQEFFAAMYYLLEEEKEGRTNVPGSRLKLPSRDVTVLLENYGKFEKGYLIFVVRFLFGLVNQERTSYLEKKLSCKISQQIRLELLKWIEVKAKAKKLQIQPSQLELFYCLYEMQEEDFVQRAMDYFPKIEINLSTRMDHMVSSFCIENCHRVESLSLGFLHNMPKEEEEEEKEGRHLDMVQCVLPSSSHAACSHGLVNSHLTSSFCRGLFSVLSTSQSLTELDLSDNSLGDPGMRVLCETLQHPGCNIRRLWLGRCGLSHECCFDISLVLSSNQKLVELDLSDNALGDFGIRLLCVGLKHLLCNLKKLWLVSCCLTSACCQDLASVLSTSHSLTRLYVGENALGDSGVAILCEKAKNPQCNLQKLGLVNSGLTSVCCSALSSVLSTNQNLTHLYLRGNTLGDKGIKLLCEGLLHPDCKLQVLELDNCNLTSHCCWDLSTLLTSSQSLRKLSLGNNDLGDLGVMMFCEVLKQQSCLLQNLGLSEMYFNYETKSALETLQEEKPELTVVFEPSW

CCCN(CCC)S(=O)(=O)c1ccc(-c2ccc(CCCC(=O)O)cc2)cc1 [BT032, 4-(4′-(N,N-dipropylsulfamoyl)-[1,1′-biphenyl]-4-yl)butanoic acid]
NLRP1 (L18-MDP)-induced inflammasome activation [1]: dose-dependently inhibited
potency versus control probenecid compounds (IL-1β secretion) [2]: more potent than the control probenecid compounds
NLRP1 (L18-MDP)-induced inflammasome activation as measured by IL-1β secretion ([3]; NLRP3-/- macrophages): dose-dependently inhibited
NLRP1 (L18-MDP)-induced inflammasome activation as measured by IL-1β secretion ([3]; WT macrophages): dose-dependently inhibited
direct interaction with NLRP3 [4]: directly interacts proximal to the Walker B motif within the NACHT domain
NLRC4 (Flagellin)-mediated inflammasome activation [5]: no effect
IC50 [6]: 30 µM
levels of inflammasome-driven cytokines and/or inflammasome proteins versus non-treated controls ([7]; IL-1β, IL-18, IL-6, TNF, NLRP3, ASC, NLRP1): reduced levels
activation of inflammasomes versus non-treated controls ([7]; intradermal dosing, UVB 2MED): reduction in the activation of inflammasomes
ASC specks in cells [8]: substantially reduced ASC specks
NLRP3 (Nigericin, MSU, Silica)-induced inflammasome activation [9]: dose-dependently inhibited
